Ends that are not written are not given here.
How the values were obtained:
Type in all cases: cell-based
c-myc = test: Expression analysis of c-myc in dermal papilla cells (western blot); settings: for activity of c-myc: FIG. 7 legend
Protocol: (§1) As in Example 1, the dermal papilla cells were stabilized for at least 4 hours after seeding in 6 well plates at 4×10^4 cells/well. Thereafter, the medium was removed, and the cell was treated with PDRN, Wnt-1 peptide and Wnt-2 peptide at various concentrations alone or in combination and incubated for 72 hours in an incubator at 37° C., 5% CO2.
(§2) Then, the cells were lysed by adding lysis buffer (1 M Tris-HCl, 0.5 M EDTA, 1% Triton X-100, 100 mM PMSF) to each cell, and the protein was quantified using a BCA (Bicinconinic acid) kit. 20 μg of protein was loaded on 10% SDS-polyacrylamide and electrophoresed at 125 V. The protein separated by electrophoresis was transferred to PVDF membrane (Immobilon-P transfermembrane) by electrophoresis at 50 mA for 120 minutes using transfer buffer (20% methanol, 25 mM Tris-HCl, 192 mM glycine).
(§3) To prevent nonspecific binding, the membranes were blocked with 5% non-fat skim milk and then the reaction was carried out at 4° C. for 12 hours with a primary antibody (β-catenin, c-myc, Santa Cruz Biotechnology, Inc.) diluted to 1:1000 in TTBS solution ([…], pH 7.4; 20 mM NaCl; 0.05% Tween-20). Thereafter, the membrane was washed three times with TTBS and reacted with a secondary antibody (HRP-conjugated anti-rabbit IgG) diluted to 1:2000 at room temperature for 2 hours. The membrane was then washed three times with TTBS and then protein expression was confirmed on the X-ray film using an ECL diagnostic kit.

keratinocytes = test: Keratinocyte growth by Wnt-derived peptides (microscopy); settings: 72 hours (FIG. 3A)
Protocol: (§4) To confirm the shape change and proliferation rate of cells, keratinocytes T0020001 (AddexBio), fibroblasts (ATCC), and dermal papilla cells were cultured in DMEM medium containing 10% fetal bovine serum and 1% penicillin/streptomycin.
(§5) After the cells were recovered by treating the cultured cells with trypsin/EDTA and the number of cells was measured using a hematocytometer. The cells were seeded in 96 well plates at 3×10^3 cells/200 μL/well and stabilized for at least 4 hours.
(§6) Thereafter, the medium was removed, diluted with DEME medium so as to be the Wnt peptides (Wnt-1, Wnt-2) of 10, 100, 1000, and 10000 ng/mL and then treated with cells and cultured for 72 hours in an incubator at 37° C., 5% CO2. The cells were then observed by a microscope to analyze the morphology and growth rate of the cells.

dermal papilla cells [1] = test: Dermal papilla cell growth by Wnt-derived peptides (microscopy); settings: 100 ng/mL among 10-10000 ng/mL, 72 hours (FIG. 3C)
Protocol: as §4, §5, §6

β-catenin = test: Expression analysis of β-catenin in dermal papilla cells (western blot); settings: FIG. 6 legend
Protocol: as §1, §2, §3

fibroblasts = test: Fibroblast growth by Wnt-derived peptides (microscopy); settings: 10-10000 ng/mL, 72 hours, compared to the control group (FIG. 3B)
Protocol: as §4, §5, §6

dermal papilla cells [2] = test: Dermal papilla cell growth rate by cell counting (PDRN alone or with Wnt-1+Wnt-2); settings: PDRN 50, 100, 200 μg/mL, 72 hours, relative to control without PDRN (FIG. 2)
Protocol: Dermal papilla cells (Promocells) were cultured in an incubator at 37° C., 5% CO2 using DMEM medium (Dulbeco's Modified Eagle's Medium) containing 10% fetal bovine serum (FBS) and 1% penicillin/streptomycin.
Cells were recovered by treating the cultured cells with trypsin/EDTA, and then the number of cells was measured using a hemacytometer. The cells were seeded in 96 well plates at 3×10^3 cells/200 μL/well and then stabilized for at least 4 hours. Thereafter, the medium was removed, diluted in DEME medium so as to be the polydeoxyribonucleotide (PDRN) of 50, 100, 200 μg/mL concentration and then treated with cells and cultured for 72 hours in an incubator at 37° C., 5% CO2.
Subsequently, the cells were recovered by treating them with trypsin/EDTA and then the number of cells was measured using a hematocytometer. Cell growth rate was analyzed by calculating percentages based on the control group without the treatment with PDRN.
As in Example 1, the dermal papilla cells were seeded in 96 well plates at 3×10^3 cells/200 μL/well and stabilized for at least 4 hours. Thereafter, the medium was removed, diluted with DEME medium so as to be polydeoxyribonucleotide (PDRN, BR Pharm Co. Ltd.) of 25, 50, 100 μg/mL and Wnt-1 peptide+Wnt-2 peptide of 0.1 μg/mL (each 0.05 μg/mL) and then treated with cells and cultured for 72 hours in an incubator at 37° C., 5% CO2.

Substance: MCCGRGYDQF (Ac-MCCGRGYDQF; cysteine pairing not given here) [Wnt-1]
- activity of c-myc (c-myc): effect of increasing the activity of c-myc
- growth rate of the cells (keratinocytes) (keratinocytes; 10, 100, 1000, 10000 ng/mL): growth rate of the cells was increased
- cell growth rate (dermal papilla cells) at 100 ng/mL (dermal papilla cells [1]): highest cell growth rate
- activity of β-catenin (β-catenin): effect of increasing the activity of β-catenin

Substance: MCCGRGYNYH (Ac-MCCGRGYNYH; cysteine pairing not given here) [Wnt-2]
- activity of c-myc (c-myc): effect of increasing the activity of c-myc
- cell growth rate (keratinocytes) at 100 ng/mL (keratinocytes; 100 ng/mL among 10-10000 ng/mL): highest cell growth rate
- cell growth rate (dermal papilla cells) at 100 ng/mL (dermal papilla cells [1]): highest cell growth rate
- cell growth (fibroblasts) compared to the control group (fibroblasts): no change was observed
- activity of β-catenin (β-catenin): effect of increasing the activity of β-catenin

Substance: polydeoxyribonucleotide [PDRN]
- expression of c-myc with PDRN treatment concentration (c-myc; 72 hours (FIG. 7)): increased as the treatment concentration of PDRN increased
- growth rate of the dermal papilla cells (dermal papilla cells [2]): increases as the PDRN treatment concentration increases
- activity of β-catenin (β-catenin): effect of increasing the activity of β-catenin

Source: patent publication US20200317741A1, “COMPOSITION FOR PREVENTING HAIR LOSS OR PROMOTING HAIR GROWTH” (BR PHARM CO., LTD., priority 2019, published 2020)
